Data from US10568879B2 (GALAPAGOS NV, priority 2015, dated 2020).
Like-named read-outs stand apart in the source and are kept apart here.

Columns and labels:
GPR84 = biological target: T1, GPR84 (Homo sapiens, UniProt Q9NQS5); test: GPR84 [35S]GTPγS binding assay; type: biochemical; settings: 3,3′-diindolylmethane at EC80; membranes from stable cell line over expressing GPR84
T1 construct: expressed in transfected cells
Summary of the method: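 Antagonist-mode [35S]GTPγS binding on membranes from a GPR84-overexpressing stable line (GDP-preincubated), stimulated with 3,3′-diindolylmethane at EC80. Buffer 20 mM Tris pH 7.5, 5 mM MgCl2, 250 mM NaCl, saponin; 0.1 nM [35S]GTPγS, 90 min at room temperature, SPA bead read-out.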

human neutrophils = test: Human neutrophil migration assay; type: cell-based; settings: for IC50: Homo sapiens, Neutrophil, read-out: Human neutrophil migration IC50
Protocol: The activity of GPR84 agonists and antagonists can therefore be assayed in a human neutrophil migration assay. The human neutrophil migration assay makes use of freshly isolated human neutrophils from buffy coats that are subsequently used in a functional chemotaxis assay setup. […] After 1 h of incubation at 37° C. and 5% CO2, the number of migrated neutrophils in the lower compartment can be quantified by measuring the ATP content using ATPlite™ Luminescence Assay System. A human buffy coat suspension is diluted with an equal volume of ice cold DPBS. 20 mL of the diluted buffy coat suspension is gently mixed with 4 mL of ACD buffer (140 mM citric acid, 200 mM sodium citrate and 220 mM dextrose). Then, 12 mL of a 6% dextran/0.9% NaCl solution (15 g dextran T2000 and 2.25 g NaCl dissolved in 250 mL H2O) is added to the mixture and the samples are inverted gently up to 20 times. The total volume is transferred to a new recipient and incubated at room temperature to allow sedimentation of red blood cells. The yellowish upper fraction is then transferred to a clean centrifugation tube and centrifuged for 12 min at 1300 rpm and 4° C. After centrifugation, the supernatant is discarded and the remaining cell pellet is rapidly resuspended in 12 mL of ice-cold H2O to perform a red blood cell lysis by osmotic burst. After 20 seconds, 4 mL of ice-cold 0.6 M KCl is added to restore salt concentration. Samples are mixed carefully and centrifuged for 6 min at 1300 rpm and 4° C. The supernatant is discarded and the red blood cell lysis procedure is repeated one more time. […] A neutrophil cell suspension of 8.9×10^6 cells per mL is prepared in chemotaxis buffer and 180 μL per well is plated in a 96-well V-bottom plate. 20 μL of test compound solution in chemotaxis buffer is added to the 180 μL cell suspension. The mixture is incubated at room temperature for 30 min with intermediate gentle resuspension of the cells after 15 min. […] After 1 h at 37° C., 5% CO2 in a humidified incubator, the upper plate of the Transwell® system is gently removed. […] After incubation, 270 μL of cell lysate is then transferred onto a white 96-well plate for quantification by a luminescence plate reader. The relative luminescent signal measured is considered linearly related to the number of cells having migrated from the upper compartment into the receiver well.

[1] = embelin at EC80 as chemotactic agent, 1 h at 37° C.

T1 sequence (Q9NQS5 whole entry): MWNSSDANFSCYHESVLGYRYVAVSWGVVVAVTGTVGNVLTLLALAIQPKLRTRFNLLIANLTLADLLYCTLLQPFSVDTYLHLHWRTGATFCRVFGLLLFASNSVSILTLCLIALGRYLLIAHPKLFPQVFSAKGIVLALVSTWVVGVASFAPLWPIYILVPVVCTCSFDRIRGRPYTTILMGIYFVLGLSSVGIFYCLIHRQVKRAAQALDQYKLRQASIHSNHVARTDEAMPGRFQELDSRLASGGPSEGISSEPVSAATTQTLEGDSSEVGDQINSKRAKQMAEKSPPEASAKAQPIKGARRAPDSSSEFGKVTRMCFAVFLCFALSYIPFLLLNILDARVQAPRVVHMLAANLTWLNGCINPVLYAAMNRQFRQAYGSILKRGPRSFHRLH

SMILES	IC50 (GPR84) [nM]	IC50 (human neutrophils; [1]) [nM]	IC50 (human neutrophils; 1 h) [nM]	neutrophil chemotaxis induced by GPR84 agonists (human neutrophils)
COc1cc2c(cc1OC)-c1cc(=O)cc(NCC3CCCO3)n1CC2 (centres unmarked) [Compound 4, 9,10-Dimethoxy-4-[(tetrahydro-furan-2-ylmethyl)-amino]-6,7-dihydro-pyrido[2,1-a]isoquinolin-2-one]	> 1000	> 1000	–	–
COc1cc2c(cc1OC)-c1c(C)c(=O)cc(NC[C@@H]3COCCO3)n1CC2 [Compound 6, 4-[[(2R)-1,4-dioxan-2-yl]methylamino]-9,10-dimethoxy-1-methyl-6,7-dihydrobenzo[a]quinolizin-2-one]	500 to 1000	> 1000	–	–
Cc1c2n(c(NCC3CCCO3)cc1=O)CCc1cc(OCC3CC3(F)F)ccc1-2 (centres unmarked) [Compound 7, 9-(2,2-Difluoro-cyclopropylmethoxy)-1-methyl-4-[(tetrahydro-furan-2-ylmethyl)-amino]-6,7-dihydro-pyrido[2,1-a]isoquinolin-2-one]	0.01 to 100	100 to 500	–	–
Cc1c2n(c(NCC3CCCCO3)cc1=O)CCc1cc(OCC(F)F)ccc1-2 (centres unmarked) [Compound 13, 9-(2,2-difluoroethoxy)-1-methyl-4-(tetrahydropyran-2-ylmethylamino)-6,7-dihydrobenzo[a]quinolizin-2-one]	100 to 500	100 to 500	–	–
Cc1c2n(c(NCC3CCCCO3)cc1=O)CCc1cc(OCC(F)(F)F)ccc1-2 (centres unmarked) [Compound 14, 1-methyl-4-(tetrahydropyran-2-ylmethylamino)-9-(2,2,2-trifluoroethoxy)-6,7-dihydrobenzo[a]quinolizin-2-one]	0.01 to 100	0.01 to 100	–	–
COc1ccc2c(c1OC)CCn1c(NCC3COCCO3)cc(=O)cc1-2 (centres unmarked) [Compound 19, 4-(1,4-dioxan-2-ylmethylamino)-8,9-dimethoxy-6,7-dihydrobenzo[a]quinolizin-2-one]	500 to 1000	> 1000	–	–
COc1c(O)ccc2c1CCn1c(NCC3COCCO3)cc(=O)cc1-2 (centres unmarked) [Compound 21, 4-(1,4-dioxan-2-ylmethylamino)-9-hydroxy-8-methoxy-6,7-dihydrobenzo[a]quinolizin-2-one]	> 1000	> 1000	–	–
COc1c(OCC(F)F)ccc2c1CCn1c(NCC3COCCO3)cc(=O)c(C)c1-2 (centres unmarked) [Compound 23, 9-(2,2-Difluoro-ethoxy)-4-[([1,4]dioxan-2-ylmethyl)-amino]-8-methoxy-1-methyl-6,7-dihydro-pyrido[2,1-a]isoquinolin-2-one]	0.01 to 100	–	0.01 to 100	–
COc1c(OCC(F)F)ccc2c1CCn1c(NCC3CCCO3)cc(=O)c(C)c1-2 (centres unmarked) [Compound 24, 9-(2,2-Difluoro-ethoxy)-8-methoxy-1-methyl-4-[(tetrahydro-furan-2-ylmethyl)-amino]-6,7-dihydro-pyrido[2,1-a]isoquinolin-2-one]	0.01 to 100	100 to 500	–	–
Cc1c2n(c(OC[C@@H]3COCCO3)cc1=O)CCc1cc(C#N)ccc1-2 [Compound 25, 4-[[(1S)-1,4-dioxan-2-yl]methoxy]-1-methyl-2-oxo-6,7-dihydrobenzo[a]quinolizine-9-carbonitrile]	500 to 1000	> 1000	–	–
Cc1c2n(c(NC[C@@H]3COCCO3)cc1=O)CCc1cc(OCc3ccccc3)ccc1-2 [Compound 34, 9-benzyloxy-4-[[(2R)-1,4-dioxan-2-yl]methylamino]-1-methyl-6,7-dihydrobenzo[a]quinolizin-2-one]	–	0.01 to 100	–	–
Cc1ccc(COc2ccc3c(c2)CCn2c(OC[C@@H]4COCCO4)cc(=O)c(C)c2-3)cn1 [Compound 52, 4-[[(2S)-1,4-dioxan-2-yl]methoxy]-1-methyl-9-[(6-methyl-3-pyridyl)methoxy]-6,7-dihydrobenzo[a]quinolizin-2-one]	–	0.01 to 100	–	–
Cc1c2n(c(OC[C@@H]3COCCO3)cc1=O)CCc1cc(N3CCN(C(=O)OC(C)(C)C)CC3)ccc1-2 [Compound 60, tert-butyl 4-[4-[[(2S)-1,4-dioxan-2-yl]methoxy]-1-methyl-2-oxo-6,7-dihydrobenzo[a]quinolizin-9-yl]piperazine-1-carboxylate]	–	0.01 to 100	–	–
Cc1c2n(c(OC[C@@H]3COCCO3)cc1=O)CCc1cc(C3CN(C(=O)OC(C)(C)C)C3)ccc1-2 [Compound 71, tert-butyl 3-[4-[[(2S)-1,4-dioxan-2-yl]methoxy]-1-methyl-2-oxo-6,7-dihydrobenzo[a]quinolizin-9-yl]azetidine-1-carboxylate]	–	0.01 to 100	–	–
Cc1c2n(c(OC[C@@H]3COCCO3)cc1=O)CCc1cc(OCCOC(F)(F)F)ccc1-2 [Compound 72, 4-[[(2S)-1,4-dioxan-2-yl]methoxy]-1-methyl-9-[2-(trifluoromethoxy)ethoxy]-6,7-dihydrobenzo[a]quinolizin-2-one]	–	0.01 to 100	–	–
Cc1c2n(c(OCC3CCC(C)(C)O3)cc1=O)CCc1cc(OCc3ccccc3)ccc1-2 (centres unmarked) [Compound 154, 9-benzyloxy-4-[(5,5-dimethyltetrahydrofuran-2-yl)methoxy]-1-methyl-6,7-dihydrobenzo[a]quinolizin-2-one]	0.01 to 100	–	–	–
Cc1c2n(c(OC[C@@H]3COCCO3)cc1=O)CCc1cc(OCC(F)(F)C(F)(F)F)ccc1-2 [Compound 155, 4-[[(2S)-1,4-dioxan-2-yl]methoxy]-1-methyl-9-(2,2,3,3,3-pentafluoropropoxy)-6,7-dihydrobenzo[a]quinolizin-2-one]	0.01 to 100	–	–	–
Cc1c2n(c(OC[C@@H]3COCCO3)cc1=O)CCc1cc(N3CCCC3=O)ccc1-2 [Compound 157, 4-[[(2S)-1,4-dioxan-2-yl]methoxy]-1-methyl-9-(2-oxopyrrolidin-1-yl)-6,7-dihydrobenzo[a]quinolizin-2-one]	500 to 1000	–	–	–
CCCCCCCCCC(=O)[O-].[Na+] [sodium decanoate, reference compound]	–	–	–	induce neutrophil chemotaxis
CCCCCCCCCCC(=O)[O-].[Na+] [sodium undecanoate, reference compound]	–	–	–	induce neutrophil chemotaxis

The next lines start with results.

IC50 (GPR84) [nM]	IC50 (human neutrophils; [1]) [nM]	SMILES	IC50 (human neutrophils; 1 h) [nM]	neutrophil chemotaxis induced by GPR84 agonists (human neutrophils)
100 to 500	100 to 500	Cc1c2n(c(NCC3CCCO3)cc1=O)CCc1cc(OC3CCCO3)ccc1-2 (centres unmarked) [Compound 9, -Methyl-4-[(tetrahydro-furan-2-ylmethyl)-amino]-9-(tetrahydro-furan-2-yloxy)-6,7-dihydro-pyrido[2,1-a]isoquinolin-2-one]	–	–
0.01 to 100	100 to 500	COc1ccc2c(c1OC)CCn1c(NCC3CCCCO3)cc(=O)c(C)c1-2 (centres unmarked) [Compound 16, 8,9-dimethoxy-1-methyl-4-(tetrahydropyran-2-ylmethylamino)-6,7-dihydrobenzo[a]quinolizin-2-one]	–	–
0.01 to 100	100 to 500	COc1ccc2c(c1OC)CCn1c(NCC3COCCO3)cc(=O)c(C)c1-2 (centres unmarked) [Compound 17, 4-(1,4-dioxan-2-ylmethylamino)-8,9-dimethoxy-1-methyl-6,7-dihydrobenzo[a]quinolizin-2-one]	–	–
> 1000	> 1000	COc1ccc2c(c1OC)CCn1c(NCC3CCCO3)cc(=O)cc1-2 (centres unmarked) [Compound 20, 8,9-dimethoxy-4-(tetrahydrofuran-2-ylmethylamino)-6,7-dihydrobenzo[a]quinolizin-2-one]	–	–
> 1000	> 1000	COc1ccc2c(c1O)CCn1c(NCC3COCCO3)cc(=O)cc1-2 (centres unmarked) [Compound 22, 4-(1,4-dioxan-2-ylmethylamino)-8-hydroxy-9-methoxy-6,7-dihydrobenzo[a]quinolizin-2-one]	–	–
–	0.01 to 100	Cc1c2n(c(OCC3COCCO3)cc1=O)CCc1cc(OCC(F)(F)F)ccc1-2 (centres unmarked) [Compound 90, 4-(1,4-dioxan-2-ylmethoxy)-1-methyl-9-(2,2,2-trifluoroethoxy)-6,7-dihydrobenzo[a]quinolizin-2-one]	–	–
100 to 500	–	Cc1c2n(c(OCC3(C)CCCO3)cc1=O)CCc1cc(OCc3ccccc3)ccc1-2 (centres unmarked) [Compound 153, 9-benzyloxy-1-methyl-4-[(2-methyltetrahydrofuran-2-yl)methoxy]-6,7-dihydrobenzo[a]quinolizin-2-one]	–	–
100 to 500	–	Cc1c2n(c(OC[C@@H]3COCCO3)cc1=O)CCc1ccccc1-2 [Compound 156, 4-[[(2S)-1,4-dioxan-2-yl]methoxy]-1-methyl-6,7-dihydrobenzo[a]quinolizin-2-one]	–	–
0.01 to 100	–	Cc1c2n(c(OC[C@@H]3COCCO3)cc1=O)CCc1cc(OCCF)ccc1-2 [Compound 159, 4-[[(2S)-1,4-dioxan-2-yl]methoxy]-9-(2-fluoroethoxy)-1-methyl-6,7-dihydrobenzo[a]quinolizin-2-one]	–	–
